Laboratory results published in patent publication US20130231303A1, “5-HALOGENOPYRAZOLE(THIO)CARBOXAMIDES” (Bayer Intellectual Property GmbH, priority 2010, published 2013).
Where two headings read alike, the source gives them in different places.

Key:
[1] = logP by HPLC on reversed-phase column (EEC Directive 79/831 Annex V.A8); format: physicochemical
Method: In table 1, the logP values were determined in accordance with EEC Directive 79/831 Annex V.A8 by HPLC (High Performance Liquid Chromatography) on a reversed-phase column (C 18), using the method described below: Temperature: 40° C.; Mobile phases: 0.1% aqueous formic acid and acetonitrile; linear gradient from 10% acetonitrile to 90% acetonitrile. Calibration was carried out using unbranched alkan-2-ones (comprising 3 to 16 carbon atoms) with known logP values (determination of the logP values by the retention times using linear interpolation between two successive alkanones). lambda-max-values were determined using UV-spectra from 200 nm to 400 nm and the peak values of the chromatographic signals.

[2] = tested on: Pyrenophora teres; assay: Pyrenophora test (barley)/preventive; format: in vivo; conditions: preventive, 500 ppm, evaluated 7-9 days after inoculation
Method: (§1) The plants remain for 48 hours in an incubation cabinet at 22° C. and a relative atmospheric humidity of 100%. Then the plants are placed in a greenhouse at a temperature of approximately 20° C. and a relative atmospheric humidity of approximately 80%.

[3] = tested on: Puccinia recondita; assay: Puccinia test (wheat)/preventive; format: in vivo; conditions: preventive, 500 ppm, evaluated 7-9 days after inoculation
Method: as §1

[4] = tested on: Alternaria solani; assay: Alternaria test (tomato)/preventive; format: in vivo; conditions: preventive, 500 ppm, evaluated 7 days after inoculation
Method: The plants remain for one day in an incubation cabinet at approximately 22° C. and a relative atmospheric humidity of 100%. Then the plants are placed in an incubation cabinet at approximately 20° C. and a relative atmospheric humidity of 96%.

[5] = HPLC, reversed-phase C 18, 40° C., 0.1% aqueous formic acid and acetonitrile gradient

logP [1]	logP [1, 5]	Structure (SMILES)	Efficacy [2] [%]	Efficacy [3] [%]	Efficacy [4] [%]
3.60		Cc1ccc(-c2ccsc2NC(=O)c2c(C(F)F)nn(C)c2F)cc1 [Example 40]			
	4.41	CCC(C)C(C)=Cc1sccc1NC(=O)c1c(C(F)F)nn(C)c1Cl (stereo not drawn) [Example 31]	70		
3.87		Cn1nc(C(F)F)c(C(=O)Nc2cc(-c3ccc(Cl)cc3)cs2)c1F [Example 41]			
	4.26	CC=C(c1sccc1NC(=O)c1c(C(F)F)nn(C)c1Cl)C(C)C [Example 27]	89	80	75
4.25		Cn1nc(C(F)F)c(C(=O)Nc2ccsc2C=C2CCCCC2)c1Cl [Example 30]	80		70
3.11		Cn1nc(C(F)F)c(C(=O)Nc2ccsc2-c2ccccc2)c1F [Example 38]			
4.12		CCCCC=Cc1sccc1NC(=O)c1c(C(F)F)nn(C)c1Cl [Example 25]			
3.70		CC=C(c1ccccc1)c1sccc1NC(=O)c1c(C(F)F)nn(C)c1Cl [Example 37]			

Continued, molecule first:

Structure (SMILES)	logP [1]	logP [1, 5]	Efficacy [2] [%]	Efficacy [3] [%]	Efficacy [4] [%]
CCCC(CCC)c1sccc1NC(=O)c1c(C(F)F)nn(C)c1Cl [Example 14]	4.54		94	70	
CC(=CCC(C)C)c1sccc1NC(=O)c1c(C(F)F)nn(C)c1Cl (mixture of isomers) [Example 34]			78		
CCCC(C)c1sccc1NC(=O)c1c(C(F)F)nn(C)c1Cl (stereo not drawn) [Example 2]		3.70	100	100	94
CC(=CC(C)(C)C)c1sccc1NC(=O)c1c(C(F)F)nn(C)c1Cl (mixture of isomers) [Example 33]			94	95	88
CCC(=Cc1sccc1NC(=O)c1c(C(F)F)nn(C)c1Cl)CC [Example 24]	4.06		90	90	
CCC=C(CCC)c1sccc1NC(=O)c1c(C(F)F)nn(C)c1Cl (mixture of isomers) [Example 32]				80	
Cn1nc(C(F)F)c(C(=O)Nc2ccsc2C=CC(C)(C)C)c1Cl [Example 23]		3.92	80	90	70
CC(CCCC#N)c1sccc1NC(=O)c1c(C(F)F)nn(C)c1Cl (stereo not drawn) [Example 11]	2.57		94	100	
CC(c1sccc1NC(=O)c1c(C(F)F)nn(C)c1Cl)C1CCCCC1 (stereo not drawn) [Example 21]		4.56	100	95	95
CCC=C(C)c1sccc1NC(=O)c1c(C(F)F)nn(C)c1Cl (mixture of isomers) [Example 22]			94	80	94
CCCC=C(C)c1sccc1NC(=O)c1c(C(F)F)nn(C)c1Cl (mixture of isomers) [Example 26]			89		75
CCC(c1sccc1NC(=O)c1c(C(F)F)nn(C)c1Cl)C(C)C (stereo not drawn) [Example 9]		4.07	100	80	94
Cn1nc(C(F)F)c(C(=S)Nc2ccsc2CC[Si](C)(C)C)c1F [Example 20]	4.46				
C=C(c1sccc1NC(=O)c1c(C(F)F)nn(C)c1Cl)C1CCCCC1 [Example 36]			95	80	
CCCCC(C)c1sccc1NC(=O)c1c(C(F)F)nn(C)c1Cl (stereo not drawn) [Example 8]		4.13	100	95	94
CCC(CC)Cc1sccc1NC(=O)c1c(C(F)F)nn(C)c1Cl [Example 5]		4.03	100	90	100
CCC(C)C(C)c1sccc1NC(=O)c1c(C(F)F)nn(C)c1Cl (stereo not drawn) [Example 10]	3.99		100	90	
